Reference: patent US20240358692A1, “TREATMENT OF SCLERODERMA” (Aisa Pharma, Inc., priority 2023, published 2024)

Assays:
participants with SSc-RP [1] = assay: SHAQ - Visual Analog Scale - Pain; assay type: in vivo, human; conditions: pooled cilnidipine 10 mg and 20 mg arms (combination: + tadalafil 5 mg)
Source text: (§1) The standard, validated, patient reported outcome measures tool for SSc patients, the Scleroderma Health Assessment Questionnaire (SHAQ), will be used to assess the participant qualify of life. Details are attached in the Appendix. The participant quality of life will be scored, and a disability index calculated for each questionnaire completed by the patient at Screening and each in-clinic visit. The absolute change in participant quality of life from baseline to the end of each dosing period will be calculated similar to frequency data as before.
(§2) The standard, validated, patient reported outcome measures tool for SSc patients, the SHAQ, was collected at the time points specified in the study schedules (FIG. 2 and FIGS. 4A and 4B) to assess the participant's quality of life. The SHAQ included a Raynaud's VAS that will also be reported separately.
Pain on the SHAQ outcome measure on the first line in table F is a composite of all pain experienced in patients with SSc, comprising joint pain, back pain, headache, odynophagia, skin ulcer related discomfort, Raynaud's, and neuropathic pain. Aisa Pharma believes, based on the biologic attributes and actions of cilnidipine that differ from most dihydropyridine calcium channel antagonists that cilnidipine might have direct analgesic effects in certain pain conditions and in fact has been designated to receive evaluation through the […] Preclinical Pain Screening Platform Program to investigate the drug in multiple in vitro and in vivo preclinical models of pain that are validated and predictive of effects in man.

participants with SSc-RP [2] = assay: SHAQ - Visual Analog Scale - Breathing Problems; assay type: in vivo, human; set-up: Visual Analog Scale-Breathing Problems, In Clinic Visit (Day 12), Mean / Visual Analog Scale-Breathing Problems, In Clinic Visit (Day 12), Median / SHAQ Visual Analogue Scale - Breathing Problems, In-Clinic Visit (Day 12), Mean / SHAQ Visual Analogue Scale - Breathing Problems, In-Clinic Visit (Day 12), Median / SHAQ Visual Analogue Scale - Breathing Problems, Change from Baseline, Median: scale not given here; conditions: for % improvement in Breathing: median, SHAQ, mITT Part A
Source text: as §1, §2

[3] = Any Cilnidipine (N = 17), Day 12, PP Population, Part A, Subject 01-110 excluded
[4] = Cilnidipine 10 mg, SSc patients, PP, Part A
[5] = Cilnidipine 20 mg, SSc patients, PP, Part A
[6] = Modified ITT Population-Part A, Day 12, dose cilnidipine 10 mg, tadalafil 5 mg, alone or combined as labelled
[7] = Modified ITT Population-Part A, dose cilnidipine 20 mg, tadalafil 5 mg, alone or combined as labelled
[8] = Pooled Cilnidipine (N = 8), Day 12, PP Population, Part A
[9] = pooled Cilnidipine 10 mg and Cilnidipine 10 mg + Tadalafil 5 mg
[10] = pooled Cilnidipine 20 mg and Cilnidipine 20 mg + Tadalafil 5 mg
[11] = pooled cilnidipine 10 mg and 20 mg arms (combination: + tadalafil 5 mg)

COCCOC(=O)C1=C(C)NC(C)=C(C(=O)OC/C=C/c2ccccc2)C1c1cccc([N+](=O)[O-])c1 (centres unmarked) [Cilnidipine]
VAS Pain Percent Change from Baseline Q1 (participants with SSc-RP [1]): −53.33, %
VAS Pain Percent Change from Baseline Q3 (participants with SSc-RP [1]): 0.00%
SHAQ Visual Analogue Scale - Breathing Problems, Change from Baseline, Mean (SD) (participants with SSc-RP [2]; [3]): 0.025 (1.2310)
SHAQ Visual Analogue Scale - Breathing Problems, Change from Baseline, Median (participants with SSc-RP [2]; [3]): 0.000
SHAQ Visual Analogue Scale - Breathing Problems, In-Clinic Visit (Day 12), Mean (SD) (participants with SSc-RP [2]; [3]): 1.388 (2.2783)
SHAQ Visual Analogue Scale - Breathing Problems, In-Clinic Visit (Day 12), Median (participants with SSc-RP [2]; [3]): 0.300
SHAQ Visual Analogue Scale - Breathing Problems, Percent Change from Baseline, Mean (SD) (participants with SSc-RP [2]; [3]): 50.12 (200.437) %
SHAQ Visual Analogue Scale - Breathing Problems, Percent Change from Baseline, Median (participants with SSc-RP [2]; [3]): −16.00%
SHAQ VAS Breathing Problems, Change from Baseline, Max (participants with SSc-RP [2]; [4]): 0.00
SHAQ VAS Breathing Problems, Change from Baseline, Mean (participants with SSc-RP [2]; [4]): −0.300
SHAQ VAS Breathing Problems, Change from Baseline, Min (participants with SSc-RP [2]; [4]): −1.20,
SHAQ VAS Breathing Problems, Change from Baseline, Q1 (participants with SSc-RP [2]; [4]): −0.600,
SHAQ VAS Breathing Problems, Change from Baseline, Q3 (participants with SSc-RP [2]; [4]): 0.000
SHAQ VAS Breathing Problems, Day 12, Max (participants with SSc-RP [2]; [4]): 6.30
SHAQ VAS Breathing Problems, Day 12, Mean (participants with SSc-RP [2]; [4]): 1.575
SHAQ VAS Breathing Problems, Day 12, Min (participants with SSc-RP [2]; [4]): 0.00,
SHAQ VAS Breathing Problems, Day 12, Q1 (participants with SSc-RP [2]; [4]): 0.000,
SHAQ VAS Breathing Problems, Percent Change from Baseline, Max (participants with SSc-RP [2]; [4]): −16.0
SHAQ VAS Breathing Problems, Percent Change from Baseline, Mean (participants with SSc-RP [2]; [4]): −16.00
SHAQ VAS Breathing Problems, Percent Change from Baseline, Median (participants with SSc-RP [2]; [4]): −16.00
SHAQ VAS Breathing Problems, Percent Change from Baseline, Min (participants with SSc-RP [2]; [4]): −16.0,
SHAQ VAS Breathing Problems, Percent Change from Baseline, Q1 (participants with SSc-RP [2]; [4]): −16.00,
SHAQ VAS Breathing Problems, Percent Change from Baseline, Q3 (participants with SSc-RP [2]; [4]): −16.00
% improvement in Breathing (participants with SSc-RP [2]; Cilnidipine 20 mg (n = 3)): 67% (median)
SHAQ VAS Breathing Problems, Change from Baseline, Max (participants with SSc-RP [2]; [5]): 0.60
SHAQ VAS Breathing Problems, Change from Baseline, Median (participants with SSc-RP [2]; [5]): −0.250
SHAQ VAS Breathing Problems, Change from Baseline, Min (participants with SSc-RP [2]; [5]): −2.00,
SHAQ VAS Breathing Problems, Change from Baseline, Q1 (participants with SSc-RP [2]; [5]): −1.400,
SHAQ VAS Breathing Problems, Change from Baseline, Q3 (participants with SSc-RP [2]; [5]): 0.450
SHAQ VAS Breathing Problems, Day 12, Max (participants with SSc-RP [2]; [5]): 2.50
SHAQ VAS Breathing Problems, Day 12, Mean (participants with SSc-RP [2]; [5]): 0.850
SHAQ VAS Breathing Problems, Day 12, Median (participants with SSc-RP [2]; [5]): 0.450
SHAQ VAS Breathing Problems, Day 12, Min (participants with SSc-RP [2]; [5]): 0.00,
SHAQ VAS Breathing Problems, Day 12, Q1 (participants with SSc-RP [2]; [5]): 0.200,
SHAQ VAS Breathing Problems, Day 12, Q3 (participants with SSc-RP [2]; [5]): 1.500
SHAQ VAS Breathing Problems, Percent Change from Baseline, Max (participants with SSc-RP [2]; [5]): 150.0
SHAQ VAS Breathing Problems, Percent Change from Baseline, Min (participants with SSc-RP [2]; [5]): −100.0,
SHAQ VAS Breathing Problems, Percent Change from Baseline, Q1 (participants with SSc-RP [2]; [5]): −83.33,
SHAQ VAS Breathing Problems, Percent Change from Baseline, Q3 (participants with SSc-RP [2]; [5]): 90.79
Visual Analog Scale-Breathing Problems, Change from Baseline, Mean (participants with SSc-RP [2]; [6]): −0.300
Visual Analog Scale-Breathing Problems, Change from Baseline, Median (participants with SSc-RP [2]; [6]): 0.000
Visual Analog Scale-Breathing Problems, Percent Change from Baseline, Mean (participants with SSc-RP [2]; [6]): −16.00%
Visual Analog Scale-Breathing Problems, Percent Change from Baseline, Median (participants with SSc-RP [2]; [6]): −16.00%
Visual Analog Scale-Breathing Problems, Change from Baseline, Median (participants with SSc-RP [2]; Modified ITT Population-Part A, Day 12, dose cilnidipine 20 mg, tadalafil 5 mg, alone or combined as labelled): −0.800
Visual Analog Scale-Breathing Problems, In Clinic Visit (Day 12), Median (participants with SSc-RP [2]; Modified ITT Population-Part A, dose cilnidipine 10 mg, tadalafil 5 mg, alone or combined as labelled): 0.000
Visual Analog Scale-Breathing Problems, In Clinic Visit (Day 12), Mean (participants with SSc-RP [2]; [7]): 0.300
Visual Analog Scale-Breathing Problems, In Clinic Visit (Day 12), Median (participants with SSc-RP [2]; [7]): 0.400
SHAQ Visual Analogue Scale - Breathing Problems, In-Clinic Visit (Day 12), Mean (participants with SSc-RP [2]; Pooled Cilnidipine 20 mg and Cilnidipine 20 mg + Tadalafil 5 mg (N = 8), Day 12, PP Population, Part A): 1.400
SHAQ Visual Analogue Scale - Breathing Problems, Change from Baseline, Mean (SD) (participants with SSc-RP [2]; [8]): −0.388 (0.8725)
SHAQ Visual Analogue Scale - Breathing Problems, In-Clinic Visit (Day 12), Mean (SD) (participants with SSc-RP [2]; [8]): 1.213 (2.2229)
SHAQ Visual Analogue Scale - Breathing Problems, In-Clinic Visit (Day 12), Median (participants with SSc-RP [2]; [8]): 0.200
SHAQ Visual Analogue Scale - Breathing Problems, Percent Change from Baseline, Mean (SD) (participants with SSc-RP [2]; [8]): −0.22 (97.721) %
% improvement in Breathing (participants with SSc-RP [2]; Pooled Cilnidipine (n = 7)): 41% (median)
% Δ from baseline, VAS Breathing mean (participants with SSc-RP [2]; Pooled cilnidipine (n=4)): −8.2%
VAS Breathing Problems Change from Baseline Max (participants with SSc-RP [2]; [9]): 1.00
VAS Breathing Problems Change from Baseline Mean (participants with SSc-RP [2]; [9]): −0.175
VAS Breathing Problems Change from Baseline Median (participants with SSc-RP [2]; [9]): 0.000
VAS Breathing Problems Change from Baseline Min (participants with SSc-RP [2]; [9]): −1.20
VAS Breathing Problems Change from Baseline Q1 (participants with SSc-RP [2]; [9]): −0.600
VAS Breathing Problems Change from Baseline Q3 (participants with SSc-RP [2]; [9]): 0.000
VAS Breathing Problems Day 12 Max (participants with SSc-RP [2]; [9]): 6.30
VAS Breathing Problems Day 12 Median (participants with SSc-RP [2]; [9]): 0.000
VAS Breathing Problems Day 12 Min (participants with SSc-RP [2]; [9]): 0.00
VAS Breathing Problems Day 12 Q1 (participants with SSc-RP [2]; [9]): 0.000
VAS Breathing Problems Day 12 Q3 (participants with SSc-RP [2]; [9]): 2.350
VAS Breathing Problems Percent Change from Baseline Max (participants with SSc-RP [2]; [9]): 38.5%
VAS Breathing Problems Percent Change from Baseline Mean (participants with SSc-RP [2]; [9]): −26.05%
VAS Breathing Problems Percent Change from Baseline Median (participants with SSc-RP [2]; [9]): −21.33%
VAS Breathing Problems Percent Change from Baseline Min (participants with SSc-RP [2]; [9]): −100.0%
VAS Breathing Problems Percent Change from Baseline Q1 (participants with SSc-RP [2]; [9]): −63.33%
VAS Breathing Problems Percent Change from Baseline Q3 (participants with SSc-RP [2]; [9]): 11.23%
VAS Breathing Problems Change from Baseline Max (participants with SSc-RP [2]; [10]): 3.70
VAS Breathing Problems Change from Baseline Median (participants with SSc-RP [2]; [10]): 0.000
VAS Breathing Problems Change from Baseline Min (participants with SSc-RP [2]; [10]): −2.00
VAS Breathing Problems Change from Baseline Q1 (participants with SSc-RP [2]; [10]): −0.800
VAS Breathing Problems Change from Baseline Q3 (participants with SSc-RP [2]; [10]): 0.600
VAS Breathing Problems Day 12 Max (participants with SSc-RP [2]; [10]): 6.90
VAS Breathing Problems Day 12 Median (participants with SSc-RP [2]; [10]): 0.400
VAS Breathing Problems Day 12 Min (participants with SSc-RP [2]; [10]): 0.00
VAS Breathing Problems Day 12 Q1 (participants with SSc-RP [2]; [10]): 0.000
VAS Breathing Problems Day 12 Q3 (participants with SSc-RP [2]; [10]): 0.700
VAS Breathing Problems Percent Change from Baseline Max (participants with SSc-RP [2]; [10]): 600.0%
VAS Breathing Problems Percent Change from Baseline Min (participants with SSc-RP [2]; [10]): −100.0%
VAS Breathing Problems Percent Change from Baseline Q1 (participants with SSc-RP [2]; [10]): −75.00%
VAS Breathing Problems Percent Change from Baseline Q3 (participants with SSc-RP [2]; [10]): 150.00%
VAS Breathing Problems Change from Baseline Max (participants with SSc-RP [2]; [11]): 0.30
VAS Breathing Problems Change from Baseline Median (participants with SSc-RP [2]; [11]): 0.000
VAS Breathing Problems Change from Baseline Min (participants with SSc-RP [2]; [11]): −2.00
VAS Breathing Problems Change from Baseline Q1 (participants with SSc-RP [2]; [11]): −1.200
VAS Breathing Problems Change from Baseline Q3 (participants with SSc-RP [2]; [11]): 0.000
VAS Breathing Problems Day 12 Max (participants with SSc-RP [2]; [11]): 6.30
VAS Breathing Problems Day 12 Median (participants with SSc-RP [2]; [11]): 0.000
VAS Breathing Problems Day 12 Min (participants with SSc-RP [2]; [11]): 0.00
VAS Breathing Problems Day 12 Q1 (participants with SSc-RP [2]; [11]): 0.000
VAS Breathing Problems Day 12 Q3 (participants with SSc-RP [2]; [11]): 0.500
VAS Breathing Problems Percent Change from Baseline Max (participants with SSc-RP [2]; [11]): 150.0%
VAS Breathing Problems Percent Change from Baseline Mean (participants with SSc-RP [2]; [11]): −8.17%
VAS Breathing Problems Percent Change from Baseline Median (participants with SSc-RP [2]; [11]): −41.33%
VAS Breathing Problems Percent Change from Baseline Min (participants with SSc-RP [2]; [11]): −100.0%
VAS Breathing Problems Percent Change from Baseline Q1 (participants with SSc-RP [2]; [11]): −83.33%
VAS Breathing Problems Percent Change from Baseline Q3 (participants with SSc-RP [2]; [11]): 67.00%
